Where a name gives a salt, the structure may show the parent alone.

The target of this assay is T1, human HSL (Homo sapiens, UniProt Q05469).
T1 construct: generate a full length human HSL ORF with a 3′-His6 tag; His6 (C); made in house; host or cells: High 5 insect cells (baculovirus, pFast-BAC)
T1 sequence (Q05469 1-1076): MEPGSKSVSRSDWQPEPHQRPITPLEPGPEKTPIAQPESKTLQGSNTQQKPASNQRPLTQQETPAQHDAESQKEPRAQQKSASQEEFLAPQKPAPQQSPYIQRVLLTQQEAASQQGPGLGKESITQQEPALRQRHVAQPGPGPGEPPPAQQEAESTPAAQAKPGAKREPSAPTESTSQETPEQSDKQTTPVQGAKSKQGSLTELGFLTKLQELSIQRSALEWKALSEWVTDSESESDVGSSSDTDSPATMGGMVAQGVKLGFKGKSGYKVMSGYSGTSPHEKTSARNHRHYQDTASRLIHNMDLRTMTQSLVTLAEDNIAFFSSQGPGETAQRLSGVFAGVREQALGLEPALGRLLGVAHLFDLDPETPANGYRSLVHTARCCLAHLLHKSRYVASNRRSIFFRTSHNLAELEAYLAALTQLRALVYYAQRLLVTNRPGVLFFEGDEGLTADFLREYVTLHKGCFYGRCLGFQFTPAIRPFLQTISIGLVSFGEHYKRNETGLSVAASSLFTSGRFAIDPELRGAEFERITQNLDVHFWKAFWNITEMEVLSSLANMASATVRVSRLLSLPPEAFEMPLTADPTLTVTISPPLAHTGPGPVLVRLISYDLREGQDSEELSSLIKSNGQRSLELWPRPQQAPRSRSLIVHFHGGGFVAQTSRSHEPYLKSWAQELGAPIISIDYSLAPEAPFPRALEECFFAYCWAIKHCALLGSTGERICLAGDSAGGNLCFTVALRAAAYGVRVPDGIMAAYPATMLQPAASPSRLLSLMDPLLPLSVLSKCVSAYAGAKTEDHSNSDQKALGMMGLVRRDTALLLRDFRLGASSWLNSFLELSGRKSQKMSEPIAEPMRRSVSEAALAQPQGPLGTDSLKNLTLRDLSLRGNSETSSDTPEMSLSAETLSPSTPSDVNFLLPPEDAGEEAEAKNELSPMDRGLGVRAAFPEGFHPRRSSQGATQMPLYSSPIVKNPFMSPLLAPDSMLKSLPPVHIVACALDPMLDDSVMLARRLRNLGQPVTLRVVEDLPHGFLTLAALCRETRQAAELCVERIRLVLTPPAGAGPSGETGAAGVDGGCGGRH
Kind of assay: Human Hormone-Sensitive Lipase (HSL) enzyme inhibition assay (colorimetric, DMPT substrate). It counts as biochemical. The note with it: read-out: HSL hum IC50. The gist of the method: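 Full-length human HSL carrying a C-terminal His6 tag was expressed in High 5 insect cells via baculovirus and purified on Ni-NTA. Compounds from 3-fold DMSO series were mixed with 1.5 mM DMPT substrate suspension in 100 mM MOPS pH 7.2 with 0.2 mg/ml fatty acid-free BSA, then enzyme (15 ug/ml) was added for 20 minutes at 37 °C. Released thiol was detected with DTNB plus SDS/Triton X-100 (15 minutes, room temperature) at 405 nm.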
What is called IC50 is the concentration at which inhibition is half-maximal. As to `CC(C)(C)c1ccc(NC(=O)C2(O)CCN(Cc3ccccc3C(F)(F)F)CC2)cc1` [Example 47, 4-Hydroxy-1-(2-trifluoromethyl-benzyl)-piperidine-4-carboxylic acid (4-tert-butyl-phenyl)-amide], the half-inhibitory concentration (IC50) worked out at 230 nM.

`O=C(Nc1ccc(OC(F)(F)F)cc1)C1(O)CCN(S(=O)(=O)CCC(F)(F)F)CC1` [Example 62, 4-Hydroxy-1-(3,3,3-trifluoro-propane-1-sulfonyl)-piperidine-4-carboxylic acid (4-trifluoromethoxy-phenyl)-amide]: the IC50 was found to be 870 nM. With `CCc1ccc(NC(=O)C2(N)CCN(S(=O)(=O)c3ccccc3OC(F)(F)F)CC2)cc1` [Example 149, 4-Amino-1-(2-trifluoromethoxy-benzenesulfonyl)-piperidine-4-carboxylic acid (4-ethyl-phenyl)-amide] the figure was 50 nM.

As for `Cc1ccc(NC(=O)C2(N)CCN(C(=O)Nc3ccc(OC(F)(F)F)cc3)CC2)cc1` [Example 84, 4-Amino-piperidine-1,4-dicarboxylic acid 4-p-tolylamide 1-[(4-trifluoromethoxy-phenyl)-amide]; hydrochloride], the half-maximal inhibitory concentration (IC50) amounted to 360 nM.

The values above are taken from US8399676B2, “Piperidine derivatives” (Hoffman-La Roche Inc., priority 2009, dated 2013).
